Experimental findings from patent EP4745134A1 (Jiangsu Yahong Meditech Co., Ltd., priority 2023, dated 2025) are described below.

For one test, the system named is HCT116-WT cells. As to the kind of experiment: Inhibitory activity against cell proliferation (CellTiter Glo, 6 days), HCT116-WT. The conditions noted are these: HCT116-WT cells, 6 days, CellTiter Glo, read-out: HCT116-WT IC50. In kind it is cell-based. The protocol:
(§1) HCT116-WT (ATCC, CCL-247) and HCT116 MTAP KO (Nanjing Cobioer, CBP75002) cells were seeded into white low-transparency sterile 96-well cell culture plates at a density of 250 cells per well respectively, and the culture medium was McCoy's 5A Medium+10% FBS. The plates were placed under the condition of 37°C and 5% CO2 to be cultured overnight. The cells were treated with 4-fold serially diluted compounds of 8 concentration points starting at an initial concentration of 10000 nM, and the last two columns were used as control wells to which only DMSO was added. The drug-treated cells were further cultured for 6 days. On day 7, CellTiter Glo® reagent was added at 50 uL per well, and after reaction under shaking for 10 minutes at room temperature, the chemiluminescence signals were detected for the well plates through the chemiluminescence detection method using a BIOTEK H1 multifunctional microplate-reader. The IC50 values for inhibition of the compounds on cell viability were calculated in X1fit 5.0 software. Table 2. IC50 values for inhibition of the compounds on HCT116 MTAP KO/WT cell growth

Another test concerns HCT116 MTAP KO cells. Description: Inhibitory activity against cell proliferation (CellTiter Glo, 6 days), HCT116 MTAP KO. The conditions noted are these: for IC50: HCT116 MTAP KO cells, 6 days, CellTiter Glo, read-out: HCT116 MTAP KO IC50; for Selectivity HCT 116-WT/ HCT116 MTAP KO: ratio of IC50 HCT116-WT / HCT116 MTAP KO. It is filed as cell-based. The protocol: as §1

Where two headings read alike, the source gives them in different places.

Usually IC50 stands for the concentration that gives 50% inhibition. With `Cc1cc2cc(C(=O)N(Cc3ccc(-c4ccns4)cn3)N(C)c3ncccn3)ccc2nc1N` [Example 210, 2-amino-N-((5-(isothiazol-5-yl)pyridin-2-yl)methyl)-N',3-dimethyl-N'-(pyrimidin-2-yl)quinoline-6-carbohydrazide], the IC50 in the test with HCT116-WT cells (144 h) was determined as 492 nM; with HCT116 MTAP KO cells (Homo sapiens, HCT-116, 144 h), 25 nM. Moreover, the “Selectivity HCT 116-WT/ HCT116 MTAP KO” value with HCT116 MTAP KO cells is reported as 19.68.

Turning to `COC1CN(C(=O)c2cc3c(cc2C)nc(N)c2cnn(C)c23)N(c2ncc(Br)cc2F)C1` (stereo not drawn) [Example 438, (4-amino-1,7-dimethyl-1H-pyrazolo[4,3-c]quinolin-8-yl)(2-(5-bromo-3-fluoropyridin-2-yl)-4-methoxypyrazolidin-1-yl)met hanone], the IC50 is 1510 nM in the test on HCT116-WT cells (144 h) and 40 nM with HCT116 MTAP KO cells (Homo sapiens, HCT-116, 144 h). The “Selectivity HCT 116-WT/ HCT116 MTAP KO” value in the test on HCT116 MTAP KO cells amounted to 37.65.

As to `Cc1cc2cc(C(=O)N(Cc3ccc(-c4cnn(C(F)F)c4)cn3)N(C)c3ncccn3)ccc2nc1N` [Example 213, 2-amino-N-((5-(1-(difluoromethyl)-1H-pyrazol-4-yl)pyridin-2-yl)methyl)-N',3-di methyl-N'-(pyrimidin-2-yl)quinoline-6-c arbohydrazide], in the test with HCT116-WT cells, the IC50 is 863 nM. For the same compound, in the test with HCT116 MTAP KO cells, the IC50 amounted to 39 nM and the “Selectivity HCT 116-WT/ HCT116 MTAP KO” value came out at 22.13.

For the compound `Cc1cc2nc(N)c3cnn(C)c3c2cc1C(=O)N1CCCN1c1ncc(C2=CCN(C)CC2)cc1F` [Example 470, (4-amino-1,7-dimethyl-1H-pyrazolo[4,3-c]quinolin-8-yl)(2-(5-fluoro-1'-methyl-1', 2',3',6'-tetrahydro-[3,4'-bipyridine]-6-yl)pyrazolidin-1-yl)methanone], the 50% inhibitory concentration (IC50) in the test on HCT116-WT cells (144 h) stood at 3040 nM; with HCT116 MTAP KO cells (Homo sapiens, HCT-116, 144 h), 94 nM. The “Selectivity HCT 116-WT/ HCT116 MTAP KO” value in the test on HCT116 MTAP KO cells turned out to be 32.33.

With `Cc1cc2cc(C(=O)N(Cc3ccc4sc(C5=CCN(C)CC5)nc4c3)N(C)c3ncccn3)ccc2nc1N` [Example 195, 2-amino-N',3-dimethyl-N-((2-(1-methyl-1,2,3,6-tetrahydropyridin-4-yl)benzo[d]thiazol-5-yl)methyl)-N'-(pyrimidin-2-yl)qui noline-6-carbohydrazide], the IC50 with HCT116-WT cells (144 h) was 3140 nM; with HCT116 MTAP KO cells (Homo sapiens, HCT-116, 144 h), 216 nM. In addition, in the test with HCT116 MTAP KO cells, the “Selectivity HCT 116-WT/ HCT116 MTAP KO” value is listed as 14.53.

Consider `CCN(CC)c1ccc(-c2ccc(CN(C(=O)c3ccc4nc(N)c(C)cc4c3)N(C)c3ncccn3)nc2)cn1` [Example 255, 2-amino-N-((6'-(diethylamino)-[3,3'-bipyridin]-6-yl)methyl)-N',3-dimethyl-N'-(pyrimidin-2-yl)quinoline-6-carbohydrazide], for which the half-inhibitory concentration (IC50) with HCT116-WT cells (144 h) was 978 nM; in the test with HCT116 MTAP KO cells (Homo sapiens, HCT-116, 144 h), 81 nM. In addition, the “Selectivity HCT 116-WT/ HCT116 MTAP KO” value with HCT116 MTAP KO cells was 12.07.

For `Cc1cc2cc(C(=O)N(Cc3ccc(-c4nc(C#N)cs4)cn3)N(C)c3ncccn3)ccc2nc1N` [Example 230, 2-amino-N-((5-(4-cyanothiazol-2-yl)pyridin-2-yl)methyl)-N',3-dimethyl-N'-(pyrimidin-2-yl)quinoline-6-carbohydrazide], the IC50 came out at 279 nM in the test with HCT116-WT cells (144 h) and 27 nM in the test with HCT116 MTAP KO cells (Homo sapiens, HCT-116, 144 h). Also, in the test with HCT116 MTAP KO cells, the “Selectivity HCT 116-WT/ HCT116 MTAP KO” value amounted to 10.33.

Consider `CN(c1ncccc1F)N(Cc1ccc(C(F)(F)F)cn1)C(=O)c1ccc2nc(N)c3cnn(C)c3c2c1` [Example 74, 4-amino-N'-(3-fluoropyridin-2-yl)-N ',1-dimethyl-N-((5-(trifluoromethyl)pyridin-2-yl)methyl)-1H-pyrazolo[4,3-c]quinoline-8-carbohydrazide], for which the IC50 was 90 nM in the test with HCT116-WT cells (144 h) and 4.4 nM in the test on HCT116 MTAP KO cells (Homo sapiens, HCT-116, 144 h). Further, the “Selectivity HCT 116-WT/ HCT116 MTAP KO” value in the test on HCT116 MTAP KO cells was determined as 20.45.

Turning to `Cc1cc2cc(C(=O)N(Cc3ccc(-c4ccc(N(C)C)nc4)cn3)N(C)c3ncccn3)ccc2nc1N` [Example 212, 2-amino-N-((6'-(dimethylamino)-[3,3'-bipyridine]-6-yl)methyl)-N',3-dimethyl-N'-(pyrimidin-2-yl)quinoline-6-carbohydrazide], the IC50 in the test with HCT116-WT cells (144 h) stood at 646 nM; in the test with HCT116 MTAP KO cells (Homo sapiens, HCT-116, 144 h) it was 30 nM. For the same compound, in the test with HCT116 MTAP KO cells, the “Selectivity HCT 116-WT/ HCT116 MTAP KO” value stood at 21.53.

With `Cc1cc2nc(N)c3cnn(C)c3c2cc1C(=O)N1CC(O)(C(F)(F)F)CN1c1ncccc1F` (stereo not drawn) [Example 355, (4-amino-1,7-dimethyl-1H-pyrazolo[4,3-c]quinolin-8-yl)(2-(3-fluoropyridin-2-yl)-4-hydroxy-4-(trifluoromethyl)pyrazolidin-1-yl)methanone], the IC50 in the test on HCT116-WT cells (144 h) was 4800 nM; with HCT116 MTAP KO cells (Homo sapiens, HCT-116, 144 h), 150 nM. The “Selectivity HCT 116-WT/ HCT116 MTAP KO” value in the test with HCT116 MTAP KO cells was found to be 32.00.

Consider `COCCN(C)c1ccc(-c2ccc(CN(C(=O)c3ccc4nc(N)c(C)cc4c3)N(C)c3ncccn3)nc2)cn1` [Example 254, 2-amino-N-((6'-((2-methoxyethyl)(methyl)amino)-[3,3'-bipyridine]-6-yl)methyl)-N',3-d imethyl-N'-(pyrimidin-2-yl)quinoline-6-carbohydrazide], for which the IC50 with HCT116-WT cells (144 h) came out at 503 nM; in the test with HCT116 MTAP KO cells (Homo sapiens, HCT-116, 144 h) it was 42 nM. The “Selectivity HCT 116-WT/ HCT116 MTAP KO” value in the test on HCT116 MTAP KO cells is on record as 11.98.

Regarding `CN(c1ncccn1)N(Cc1ccc(-c2cnn(C(F)(F)F)c2)cn1)C(=O)c1ccc2nc(N)c3cnn(C)c3c2c1` [Example 248, 4-amino-N',1-dimethyl-N'-(pyrimidin-2-yl)-N-((5-(1-(trifluoromethyl)-1H-pyrazol-4-yl)pyridin-2-yl)methyl)-1H-pyrazolo[4,3-c]quinoline-8-carbohydrazide], the IC50 worked out at 63 nM in the test with HCT116-WT cells (144 h) and 3.9 nM in the test on HCT116 MTAP KO cells (Homo sapiens, HCT-116, 144 h). Further, in the test on HCT116 MTAP KO cells, the “Selectivity HCT 116-WT/ HCT116 MTAP KO” value worked out at 16.15.

Take `Cc1cc2cc(C(=O)N(Cc3ccc(-c4ccc(N(C)CCN(C)C)nc4)cn3)N(C)c3ncccn3)ccc2nc1N` [Example 260, 2-amino-N-((6'-((2-(dimethylamino)ethyl)(methyl)amino)-[3,3'-bipyridine]-6-yl)methyl) -N', 3-dimethyl-N'-(pyrimidin-2-yl)quinoline-6-carbohydrazide]: the IC50 was found to be 465 nM in the test with HCT116-WT cells (144 h) and 21 nM in the test with HCT116 MTAP KO cells (Homo sapiens, HCT-116, 144 h). The “Selectivity HCT 116-WT/ HCT116 MTAP KO” value with HCT116 MTAP KO cells was 22.14.

As for `Cc1csc(-c2ccc(CN(C(=O)c3ccc4nc(N)c(C)cc4c3)N(C)c3ncccn3)nc2)c1` [Example 146, 2-amino-N',3-dimethyl-N-((5-(4-methylthien-2-yl)pyridin-2-yl)methyl)-N'-(pyrimidin-2-yl)quinoline-6-carbohydrazide], the IC50 in the test on HCT116-WT cells (144 h) turned out to be 1190 nM; in the test on HCT116 MTAP KO cells (Homo sapiens, HCT-116, 144 h), 75 nM. Also, in the test with HCT116 MTAP KO cells, the “Selectivity HCT 116-WT/ HCT116 MTAP KO” value turned out to be 15.85.

For the compound `Cc1cc2nc(N)c3cnn(C)c3c2cc1C(=O)N1CCCN1c1ncc(C2CCN(C)CC2)cc1F` [Example 485, (4-amino-1,7-dimethyl-1H-pyrazolo[4,3-c]quinolin-8-yl)(2-(3-fluoro-5-(1-methylpiperid-4-yl)pyridin-2-yl)pyrazolidin-1-yl)methanone], the IC50 in the test with HCT116-WT cells (144 h) stood at 4830 nM; with HCT116 MTAP KO cells (Homo sapiens, HCT-116, 144 h) it was 415 nM. In addition, the “Selectivity HCT 116-WT/ HCT116 MTAP KO” value in the test on HCT116 MTAP KO cells turned out to be 11.64.

In the case of `Cc1cc2cc(C(=O)N(Cc3ccc(C(C)(C)F)cn3)N(C)c3ncccn3)ccc2nc1N` [Example 288, 2-amino-N-((5-(2-fluoroprop-2-yl)pyridin-2-yl)methyl)-N',3-dimethyl-N'-(pyrimidin-2-yl)quinoline-6-carbohydrazide], the IC50 stood at 1910 nM in the test with HCT116-WT cells (144 h) and 66 nM in the test with HCT116 MTAP KO cells (Homo sapiens, HCT-116, 144 h). For the same compound, the “Selectivity HCT 116-WT/ HCT116 MTAP KO” value in the test with HCT116 MTAP KO cells is listed as 28.91.

Take `CC1OCc2c1c(N)nc1ccc(C(=O)N(Cc3ccc(C(F)(F)F)cn3)N(C)c3ncccn3)cc21` (stereo not drawn) [Example 70, 4-amino-N',3-dimethyl-N'-(pyrimidin-2-yl)-N-((5-(trifluoromethyl)pyridin-2-yl)methyl)-1,3-dihydrofuro[3,4-c]quinoline-8-carbohydrazide]: the IC50 was 222 nM in the test with HCT116-WT cells (144 h) and 21 nM with HCT116 MTAP KO cells (Homo sapiens, HCT-116, 144 h). Besides, in the test on HCT116 MTAP KO cells, the “Selectivity HCT 116-WT/ HCT116 MTAP KO” value was 10.57.

Turning to `Cc1cc2cc(C(=O)N(Cc3ccc(-c4ccn(C)c(=O)c4)cn3)N(C)c3ncccn3)ccc2nc1N` [Example 209, 2-amino-N',3-dimethyl-N-((1'-methyl-2'-oxo-1',2'-dihydro-[3,4'-bipyridine]-6-yl)methyl)-N'-(pyrimidin-2-yl)quinoline-6-car bohydrazide], the half-maximal inhibitory concentration (IC50) in the test on HCT116-WT cells (144 h) is 716 nM; with HCT116 MTAP KO cells (Homo sapiens, HCT-116, 144 h), 26 nM. For the same compound, the “Selectivity HCT 116-WT/ HCT116 MTAP KO” value in the test with HCT116 MTAP KO cells turned out to be 27.54.

`Cn1ncc2c(N)nc3cc(Cl)c(C(=O)N4CC(C)(F)CN4c4ncc(Br)cc4F)cc3c21` (stereo not drawn) [Example 420, (4-amino-7-chloro-1-methyl-1H-pyrazolo [4,3-c]quinolin-8-yl)(2-(5-bromo-3-fluor opyridin-2-yl)-4-fluoro-4-methylpyrazolidin-1-yl)methanone]: the IC50 with HCT116-WT cells (144 h) was determined as 743 nM; with HCT116 MTAP KO cells (Homo sapiens, HCT-116, 144 h), 26 nM. Besides, in the test on HCT116 MTAP KO cells, the “Selectivity HCT 116-WT/ HCT116 MTAP KO” value is 28.58.

Regarding `CC1CN(C(=O)c2cc3c(cc2F)nc(N)c2cnn(C)c23)N(c2ncccc2F)C1` (single isomer, unassigned) [Example 467], the IC50 with HCT116-WT cells (144 h) was 3040 nM; in the test on HCT116 MTAP KO cells (Homo sapiens, HCT-116, 144 h), 94 nM. Also, the “Selectivity HCT 116-WT/ HCT116 MTAP KO” value with HCT116 MTAP KO cells came out at 32.33.
